Laboratory results reported in patent US10130598B2, “Methods and compositions for administration of 3-halopyruvate and related compounds for the treatment of cancer” (The Johns Hopkins University, priority 2008, dated 2018).
Read-outs that look alike come from different tables or passages of the source.

What was measured:
Vx-2 cell line = experiment: ATP dependent luminescence cell viability assay, VX2; type: cell-based; details: for IC50: Vx-2, read-out: IC50 (ATP depletion)
Excerpt: (§1) The non-small cell lung cancer (NSCLC) cell line NCI-H1299, the breast cancer cell lines MCF7 and MDA MB 231 and the Hep3B, Hep2G and SK-Hep1 cells were obtained from the American Type Culture Collection (ATCC) (Manassas, Va., USA) and maintained as a monolayer culture in Eagle's minimum essential medium (MEM, Invitrogen, Gaithersburg, Md., USA) supplemented with 10% fetal bovine serum at 37 C and 5% CO2. All treatments were done in triplicate samples on 96-well plates. VX2 cells were maintained as described in Geschwind et al., Cancer Res., 62:3909-3913 (2002).
Cytotoxicity of 3-BrPA was evaluated by the IC50 values, representing the drug concentration which depletes ATP by 50% compared to non-treated control. On day 1, cells were seeded into 96-well plates in a volume of 100 μl per well. On day 2, the medium of all wells was removed and an aliquot of 100 μl of media having serial dilutions of 3-BrPA in PBS, NaHCO3, NaOH, KOH and KHCO3 was added to the appropriate well. […] Briefly, 100 μl assay reagent was added to each well and mixed at room temperature for 2 min to develop luminescent signal. The luminescence intensity (cps) from each sample was determined with a spectrometer (Model Victor III, Perkin Elmer, Mass.). Relative luminescence was calculated in proportion to the numbers of living cells per sample well. The results are expressed as the mean of three independent experiments. The intracellular ATP contents were calculated and normalized by equal cell number and expressed as the percentage of the control cells. The IC50 values were estimated graphically from dose-response plots.
The efficacy of 3-BrPA in the treatment of liver cancer cells was further tested using the cancer cell lines Hep3B, HepG2, SK-Hep1 and VX2. […]
(§2) The effects on cell viability and cellular metabolism of 3-BrPA on Hep3B and VX2 cells were examined using luminescence ATP assays, as described above. […]

MDA MB 231 cells = experiment: Luminescence ATP assay, MDA MB 231; type: cell-based
Experimental: (§3) Cytotoxicity of 3-BrPA was evaluated by the IC50 values, representing the drug concentration which depletes ATP by 50% compared to non-treated control. On day 1, cells were seeded into 96-well plates in a volume of 100 μl per well. On day 2, the medium of all wells was removed and an aliquot of 100 μl of media having serial dilutions of 3-BrPA in PBS, NaHCO3, NaOH, KOH and KHCO3 was added to the appropriate well. After 24 h of drug exposure cytotoxic effects of 3-BrPA were monitored by cellular ATP level using CellTiter-Glo™ assay reagents from Promega Corp (Madison, Wis.). Briefly, 100 μl assay reagent was added to each well and mixed at room temperature for 2 min to develop luminescent signal. The luminescence intensity (cps) from each sample was determined with a spectrometer (Model Victor III, Perkin Elmer, Mass.). Relative luminescence was calculated in proportion to the numbers of living cells per sample well. The results are expressed as the mean of three independent experiments. The intracellular ATP contents were calculated and normalized by equal cell number and expressed as the percentage of the control cells. The IC50 values were estimated graphically from dose-response plots.
(§4) The anti-metabolic effect of 3-BrPA on MCF7 and MDA MB231 cells was examined using luminescence ATP assays, as described above. […]

[1] = tested on: Human PANC-10 pancreatic cancer cells; experiment: Orthotopic xenograft pancreatic cancer model, oral 3-BrPA; type: in vivo, NOD/SCID mice; details: for Tumor size at day 50: NaHCO3-buffered, oral
Experimental: The efficacy of orally administered 3-BrPA in the treatment of pancreatic cancer was tested using an orthotopic xenograft pancreatic cancer model. Human PANC-10 pancreatic cancer cells were implanted into the pancreas of NOD/SCID mice and allowed to form 4-5 mm^3 sized tumors. Following the establishment of the tumors, tumor-bearing mice were orally administered 250 μl of a NaHCO3-buffered solution containing varying concentrations of 3-BrPA once per day. After 50 days of treatment, the tumor-bearing mice were sacrificed and tumor growth and cancer cell proliferation was analyzed.

MCF7 cells = experiment: Luminescence ATP assay, MCF7; type: cell-based
Experimental: as §3, §4

[2] = Effect of 3-BrPA concentration on tolerability of oral administration; type: in vivo, nude mice; details: for Time to death (all mice died): oral
Experimental: To determine the effect of compound concentration on the tolerable dose of 3-BrPA, a series of experiments were performed in nude mice to determine how a change in administered volume, and therefore a change 3-BrPA concentration, would influence compound efficacy and animal survival. For these experiments, 3-BrPa was administered at a dose of 200 mg/kg and a pH of 4.
All mice in group 1 and 2 (n=3 per group) died within 24 hours after receiving 5 mg of 3-BrPA in volumes of […], respectively.

[3] = tested on: tumors implanted in rabbit livers; details: cited from earlier work
HepG2 cells = experiment: ATP dependent luminescence cell viability assay, HepG2; type: cell-based
Excerpt: as §1
Cytotoxicity of 3-BrPA was evaluated by the IC50 values, representing the drug concentration which depletes ATP by 50% compared to non-treated control. On day 1, cells were seeded into 96-well plates in a volume of 100 μl per well. On day 2, the medium of all wells was removed and an aliquot of 100 μl of media having serial dilutions of 3-BrPA in PBS, NaHCO3, NaOH, KOH and KHCO3 was added to the appropriate well. […] Briefly, 100 μl assay reagent was added to each well and mixed at room temperature for 2 min to develop luminescent signal. The luminescence intensity (cps) from each sample was determined with a spectrometer (Model Victor III, Perkin Elmer, Mass.). […]
as §2

genomic DNA = experiment: 14C-3-BrPA incorporation into genomic DNA (scintillation counting); type: cell-based; details: SK-Hep and Hep3B cells exposed to 14C-3-BrPA
Experimental: Many antineoplastic chemotherapeutics are alkylating agents that exert their effect by binding to DNA and interfering with cell replication. […] Since 3-BrPA has been reported to be an alkylating agent, it was determined whether 3-BrPA is incorporated into the DNA of 3-BrPA treated cells. To accomplish this, genomic DNA was isolated from SK-Hep and Hep3B cells that had been exposed to ^14C-3-BrPA.

Compound: O=C(O)C(=O)CBr [3-BrPA, 3-bromopyruvate]
- Level of ATP (Vx-2 cell line; VX2, 3, 24, 48 hours): dose and time dependent decrease
- IC50 (Vx-2 cell line; at 48 hours): 50 µM
- IC50 (Vx-2 cell line; treatment time not given): 60 µM
- ATP level (bioluminescent quantification) (MDA MB 231 cells): dose and time dependent energy (ATP) depletion
- Tumor size at day 50 ([1]; daily dose of 50 mg/kg): 12-14 mm^3
- Tumor size at day 50 ([1]; daily dose of 100 mg/kg): 7-8 mm^3
- Tumor size at day 50 ([1]; daily dose of 150 mg/kg): 4-6 mm^3
- Tumor size at day 50 ([1]; daily dose of 200 mg/kg): 3-5 mm^3
- Local metastases ([1]; daily dose of 50 mg/kg): lacked any signs of local metastases
- Mitotic index ([1]; daily dose of 50 mg/kg): 9-10 mitotic cells per field
- Local metastases ([1]; daily dose of 100 mg/kg): lacked any signs of local metastases
- Mitotic index ([1]; daily dose of 100 mg/kg): 7 mitotic cells per field
- Local metastases ([1]; daily dose of 150 mg/kg): lacked any signs of local metastases
- Mitotic index ([1]; daily dose of 150 mg/kg): 2-4 mitotic cells per field
- Local metastases ([1]; daily dose of 200 mg/kg): lacked any signs of local metastases
- Mitotic index ([1]; daily dose of 200 mg/kg): 1-2 mitotic cells per field
- Tumor growth ([1]; daily dose of 200 mg/kg, day 50): no signs of growth
- ATP level (bioluminescent quantification) (MCF7 cells): dose and time dependent energy (ATP) depletion
- Time to death (all mice died) ([2]; group 1: 5 mg (200 mg/kg, pH 4) in a volume of 50 ml): ≤ 24 h
- Time to death (all mice died) ([2]; group 2: 5 mg (200 mg/kg, pH 4) in a volume of 100 ml): ≤ 24 h
- Tolerability of daily oral administration ([2]; group 3: 200 mg/kg, pH 4, volume of 150 ml): did not show any signs of discomfort
- Tolerability of daily oral administration ([2]; group 4: 200 mg/kg, pH 4, volume of 200 ml): did not show any signs of discomfort
- Tolerability of daily oral administration ([2]; group 5: 200 mg/kg, pH 4, volume of 300 ml): did not show any signs of discomfort
- Tumor eradication ([3]; administered directly into the liver by intra-arterial injection): completely eradicate tumors
- Therapeutic dose ([3]; in 25 ml of PBS, continuous 1 hour intra-arterial infusion): 1.75 mM
- Biodistribution: tumor uptake ([3]; intra-arterially delivered): high tumor uptake
- Effects on healthy tissue ([3]; intra-arterially delivered): no negative effects on healthy tissue
- Level of ATP (HepG2 cells; 3, 24, 48 hours): dose and time dependent decrease
- IC50 (HepG2 cells; at 48 hours, read-out: IC50 (ATP depletion)): 125 µM
- 14C incorporation into genomic DNA (genomic DNA): no evidence of ^14C incorporation
